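Cultured in 96-well plates, cells were exposed to test compound for 48 hours across five concentrations. GI50 is the concentration that inhibits growth by half. TGI marks complete inhibition of growth.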
Tests used:
Assay in all cases: NCI anticancer screen, dose series, 48 h
COLO 205 colon = tested on: COLO 205 colon
HOP-62 NSCLC = tested on: HOP-62 NSCLC
HOP-92 NSCLC = tested on: HOP-92 NSCLC
MALME-3M melanoma = tested on: MALME-3M melanoma
MOLT-4 leukemia = tested on: MOLT-4 leukemia
NCI-H460 lung = tested on: NCI-H460 lung
OVCAR-3 ovarian = tested on: OVCAR-3 ovarian
TK-10 renal = tested on: TK-10 renal
HS 578T breast = tested on: HS 578T breast
MCF7 breast = tested on: MCF7 breast

Row | Structure (SMILES) | TGI (COLO 205 colon) [µM] | TGI (HOP-62 NSCLC) [µM] | TGI (HOP-92 NSCLC) [µM] | TGI (MALME-3M melanoma) [µM] | TGI (MOLT-4 leukemia) [µM] | TGI (NCI-H460 lung) [µM] | TGI (OVCAR-3 ovarian) [µM] | TGI (TK-10 renal) [µM] | TGI (HS 578T breast) [µM] | TGI (MCF7 breast) [µM] | GI50 (COLO 205 colon) [µM] | GI50 (HOP-92 NSCLC) [µM] | GI50 (MALME-3M melanoma) [µM] | GI50 (NCI-H460 lung) [µM] | GI50 (OVCAR-3 ovarian) [µM] | GI50 (TK-10 renal) [µM] | GI50 (MCF7 breast) [µM]
1 | C=C1CCCC2OC(OC)CCC12 (stereo not given) | > 100 | > 100 | > 100 | > 100 | > 100 | > 100 | > 100 | > 100 | – | – | – | – | – | – | – | – | –
2 | O=C(O)C1C2C=CC(O2)C1C(=O)NCc1ccncc1 (stereo not given) | > 100 | > 100 | > 100 | > 100 | – | > 100 | > 100 | > 100 | > 100 | > 100 | – | – | – | – | – | – | –
3 | COC(=O)/C(=N\Nc1nc(=S)[nH]n1N)C(C#N)c1ccc(Cl)cc1 (stereo not given) | > 100 | > 100 | > 100 | > 100 | – | > 100 | > 100 | > 100 | – | – | – | – | – | – | – | – | –
4 | CCCCCC1CC=CC(NC(=O)OCc2ccccc2)C1/C=C/CCCC1OCCO1 (stereo not given) | > 100 | > 100 | > 100 | > 100 | > 100 | > 100 | > 100 | > 100 | – | – | – | – | – | – | – | – | –
5 | O=C1C(c2ccccc2)=[N+]([O-])c2cc([N+](=O)[O-])ccc21 | 36.9 | > 100 | 64.5 | 36.1 | 51.6 | 56.8 | 36.8 | 52.4 | – | – | – | – | – | – | – | – | –
6 | O=C(CCN1CCCC1)Nc1ccc2c(Nc3ccc(Br)cc3)c3ccccc3nc2c1 | 4.33 | – | 2.71 | 3.09 | – | 1.55 | 3.11 | 3.37 | – | – | 1.85 | 1.31 | 1.62 | 0.337 | 1.61 | 1.72 | –
7 | CCOC(=O)Nc1cc2c(c(N)n1)N=C(c1ccccc1)CN2 | 0.255 | 18.5 | 34.8 | 50.8 | – | 0.485 | < 0.0001 | > 60.7 | – | 20.5 | < 0.0001 | < 0.0001 | < 0.0001 | < 0.0001 | < 0.0001 | – | 0.0232
8 | Cc1cc(=O)n2c(cc3cccccc32)n1 | > 100 | > 100 | – | – | > 100 | > 100 | > 100 | > 100 | – | – | – | – | – | – | – | – | –
9 | Nc1nc(N)c(CCCCc2ccccc2)c(/C=C/c2ccc([N+](=O)[O-])cc2)n1 | 47.6 | 12.4 | 2.21 | 9.17 | 4.16 | 39.5 | 8.4 | 6.72 | – | – | – | – | – | – | – | – | –
10 | CC(O)(c1ccc(OCCC[N+](C)(C)C)cc1)C(C)(O)c1ccc(OCCC[N+](C)(C)C)cc1 (stereo not given) | > 100 | > 100 | > 100 | > 100 | – | > 100 | > 100 | – | – | – | – | – | – | – | – | – | –
11 | C[C@H]1[C@H](C)CC[C@]2(C(=O)O)CCC3(COC(=O)/C=C/c4ccc(O)cc4)C(=CCC4[C@@]5(C)CC[C@H](O)C(C)(C)C5CC[C@]43C)[C@H]12 (stereo not given in full) | 17.9 | 23 | – | 37.2 | 32.4 | 11.2 | 24.5 | 22.3 | – | – | – | – | – | – | – | – | –
12 | C=C(C)C1CC=C(C)C(O)([C@@]2(O)C[C@H](C(=C)C)CC=C2C)C1 (stereo not given in full) | – | 35 | 40.6 | 81.8 | 43.9 | 34.6 | 29.6 | > 100 | – | – | – | – | – | – | – | – | –
